Results as given in patent publication US7939332B2, “Detection of analytes in aqueous environments” (Sensors for Medicine and Science, Inc., priority 2000, dated 2011).

Assay: Solubility
Format: physicochemical
Details: for solubility in water: H2O

solubility in water	solubility in water (listed as anthracene derivative of Examples 1 and 2)	solubility in methanol (methanol, with respect to observing excimer characteristics)	maximum solubility (PBS (pH 7.4)) [µM]	Compound	solubility in organic solvents (CH2Cl2, CHCl3, THF, CH3OH, C2H5OH)
Limited solubility in H2O	insoluble in water	insufficiently soluble	–	C=C(C)C(=O)NCCCN(Cc1ccccc1B(O)O)Cc1c2ccccc2cc2ccccc12 [9-[[N-methacryloylaminopropyl-N-(o-boronobenzyl)amino]methyl]anthracene]	soluble in CH2Cl2, CHCl3, THF, CH3OH, and C2H5OH
–	–	–	1000	C=C(C)C(=O)NCCCN(Cc1ccc(CN(CCCNC(=O)C(=C)C)Cc2ccccc2B2OCC(C)(C)CO2)cc1)Cc1ccccc1B1OCC(C)(C)CO1 [bis boronic acid monomer, α,α′-bis[N-[2-(5,5-dimethyl-1,3,2]dioxaborinan-2-yl)-benzyl]-N-[3-(methacrylamido)propylamino]-1,4-xylene]	–
